The values below are quoted from earlier work in US20150346185A1, “DIAGNOSIS OF CYSTIC FIBROSIS” (priority 2012, published 2015).

This series addresses T1, Na+ channel ENaC (Homo sapiens, UniProt P37088+P51168+P51170).
T1 construct: from tissue; host or cells: human nasal epithelium (healthy individuals and cystic fibrosis patients)
As to conditions: healthy patients, infusion of amiloride.

T1 sequence (P51168 whole entry): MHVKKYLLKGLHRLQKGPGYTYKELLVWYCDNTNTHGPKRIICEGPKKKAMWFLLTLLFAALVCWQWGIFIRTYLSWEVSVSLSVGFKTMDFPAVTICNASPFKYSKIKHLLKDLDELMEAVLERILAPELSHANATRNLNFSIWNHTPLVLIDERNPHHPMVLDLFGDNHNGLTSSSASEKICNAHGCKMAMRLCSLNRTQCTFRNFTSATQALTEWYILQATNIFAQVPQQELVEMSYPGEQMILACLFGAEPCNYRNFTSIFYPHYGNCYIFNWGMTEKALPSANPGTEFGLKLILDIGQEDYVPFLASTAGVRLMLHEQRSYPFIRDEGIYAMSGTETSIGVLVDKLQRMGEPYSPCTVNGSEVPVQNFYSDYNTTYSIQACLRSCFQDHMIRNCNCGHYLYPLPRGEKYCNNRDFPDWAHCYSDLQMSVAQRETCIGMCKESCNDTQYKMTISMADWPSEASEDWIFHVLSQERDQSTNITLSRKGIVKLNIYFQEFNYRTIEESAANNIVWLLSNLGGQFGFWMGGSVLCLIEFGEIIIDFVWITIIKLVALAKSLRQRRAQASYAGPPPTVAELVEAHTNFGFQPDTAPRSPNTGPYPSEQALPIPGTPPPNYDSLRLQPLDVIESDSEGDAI
T1 sequence (P37088 whole entry): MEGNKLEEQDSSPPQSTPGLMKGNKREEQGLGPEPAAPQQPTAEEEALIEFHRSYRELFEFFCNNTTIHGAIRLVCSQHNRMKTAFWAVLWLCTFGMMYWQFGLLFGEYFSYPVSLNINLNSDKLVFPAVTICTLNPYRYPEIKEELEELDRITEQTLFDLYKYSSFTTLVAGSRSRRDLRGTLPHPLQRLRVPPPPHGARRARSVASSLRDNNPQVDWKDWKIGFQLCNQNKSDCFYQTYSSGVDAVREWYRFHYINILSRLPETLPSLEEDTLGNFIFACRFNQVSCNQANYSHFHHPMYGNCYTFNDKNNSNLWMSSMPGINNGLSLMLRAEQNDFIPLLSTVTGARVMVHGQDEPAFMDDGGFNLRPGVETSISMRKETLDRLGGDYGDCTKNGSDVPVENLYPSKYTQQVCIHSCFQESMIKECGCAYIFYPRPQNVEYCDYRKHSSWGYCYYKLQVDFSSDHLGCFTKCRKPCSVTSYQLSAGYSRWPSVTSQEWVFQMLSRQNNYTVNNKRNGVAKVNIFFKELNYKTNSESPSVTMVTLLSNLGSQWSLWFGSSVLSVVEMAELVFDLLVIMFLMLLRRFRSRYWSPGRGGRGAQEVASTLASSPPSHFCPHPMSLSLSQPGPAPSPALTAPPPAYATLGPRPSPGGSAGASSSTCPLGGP
T1 sequence (P51170 whole entry): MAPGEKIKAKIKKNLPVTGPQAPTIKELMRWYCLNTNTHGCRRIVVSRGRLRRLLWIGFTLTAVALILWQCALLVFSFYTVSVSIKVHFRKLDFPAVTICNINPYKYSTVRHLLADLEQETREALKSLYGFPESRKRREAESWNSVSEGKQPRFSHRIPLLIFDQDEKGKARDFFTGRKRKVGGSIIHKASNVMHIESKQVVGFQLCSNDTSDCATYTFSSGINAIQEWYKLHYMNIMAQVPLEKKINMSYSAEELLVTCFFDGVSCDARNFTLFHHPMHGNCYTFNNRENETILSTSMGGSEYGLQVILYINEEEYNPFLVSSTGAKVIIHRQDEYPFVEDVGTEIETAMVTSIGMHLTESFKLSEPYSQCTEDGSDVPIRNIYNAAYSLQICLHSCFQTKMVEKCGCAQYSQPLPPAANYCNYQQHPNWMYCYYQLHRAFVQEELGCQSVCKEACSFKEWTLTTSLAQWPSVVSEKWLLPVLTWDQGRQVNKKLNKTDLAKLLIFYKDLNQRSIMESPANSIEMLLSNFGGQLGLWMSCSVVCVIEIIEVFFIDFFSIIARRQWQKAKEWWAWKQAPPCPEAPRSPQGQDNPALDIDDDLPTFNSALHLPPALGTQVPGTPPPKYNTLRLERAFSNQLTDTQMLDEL

Consider `N=C(N)NC(=O)c1nc(Cl)c(N)nc1N` [amiloride], for which the “reduction of nasal transepithelial potential difference” value is 55%.
